Where “and” joins values, the source holds several entries; their conditions need not be identical. Identical values can stand only once.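 Results reflect a 48-hour exposure of cells in 96-well plates to compound at five concentrations. Abbreviation: GI50, concentration required for 50% inhibition of growth. TGI: concentration producing complete growth inhibition.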
Key:
Assay in all cases: NCI tumour cell line growth inhibition, 48 h
[1] = test system: A498 renal
[2] = test system: IGROV1 ovarian
[3] = test system: M14 melanoma
[4] = test system: MALME-3M melanoma
[5] = test system: MOLT-4 leukemia
[6] = test system: NCI-H23 lung
[7] = test system: SN12C renal
[8] = test system: UACC-62 melanoma
[9] = test system: HCT-116 colon
[10] = test system: HOP-62 NSCLC
[11] = test system: HOP-92 NSCLC
[12] = test system: NCI-H460 lung
[13] = test system: T-47D breast

| Structure (SMILES) | TGI [1] | TGI [2] | TGI [3] [µM] | TGI [4] | TGI [5] | TGI [6] | TGI [7] | TGI [8] | TGI [9] | TGI [10] | TGI [11] | TGI [12] [µM] | TGI [13] [µM] | GI50 [9] [µM] | GI50 [11] [µM] | GI50 [4] [µM] | GI50 [5] | GI50 [6] [µM] | GI50 [1] |
| --- | --- | --- | --- | --- | --- | --- | --- | --- | --- | --- | --- | --- | --- | --- | --- | --- | --- | --- | --- |
| NC(=O)CCC(N=C(N)c1csc(C2OC(CO)C(O)C2O)n1)C(=O)O (stereo not given) | > 100 µM | > 100 µM | > 100 | > 100 µM | > 100 µM | > 100 µM | > 100 µM | > 100 µM | – | – | – | – | – | – | – | – | – | – | – |
| C/C=C/C1=CC(=O)C(O)C1O (stereo not given) | 16.7 µM | 141 µM | – | 87.4 µM | 109 µM | > 77.9 µM | 64 µM | 88.6 µM | 96 µM | 126 µM | 66 µM | 51.4 | – | – | – | – | – | – | – |
| CC(=O)OC/C=C\Cn1nc(Br)c(=O)[nH]c1=O | 34.7 µM | 29.4 µM | 30.9 | 31.1 µM | – | 32.5 µM | 55.2 µM | – | – | 45.1 µM | 27.9 µM | 26.7 | 37.1 | – | – | – | – | – | – |
| CC(=O)NC(CCC(=O)C=[N+]=N)C(=O)O (stereo not given) | > 100 µM | > 100 µM | > 100 | > 100 µM | > 100 µM | > 100 µM | > 100 µM | > 100 µM | > 100 µM | > 100 µM | > 100 µM | > 100 | > 100 | – | – | – | – | – | – |
| CNC(=O)SCC(N)C(=O)O (stereo not given) | > 100 µM | > 100 µM | – | > 100 µM | > 100 µM | > 100 µM | > 100 µM | > 100 µM | > 100 µM | > 100 µM | > 100 µM | > 100 | – | – | – | – | – | – | – |
| CC(=O)O[C@H]1/C(=C/c2ccncc2)C[C@H]2[C@@H]3CC=C4C[C@@H](N5CCCC5)CC[C@]4(C)[C@H]3CC[C@]12C | 30.9 µM | 27.1 µM | 23.8 | 28 µM | 30.3 µM | 30.7 µM | 30.8 µM | 27.5 µM | 15.3 µM | 30.4 µM | 19.8 µM | 24.8 | 29.3 | – | – | – | – | – | – |
| COC(=O)c1c(O)ccc2c1c1c(n2Cc2ccc(Cl)cc2Cl)C(=O)c2ccccc2C1=O | 33.7 µM | 26.9 µM | 29 | 34.2 µM | 7.17 µM | 24.8 µM | 5.62 µM | – | 13.1 µM | 23.5 µM | 25.1 µM | 13 | 13.7 | – | – | – | – | – | – |
| COc1ccc(/C(O)=C/c2nc3cccnc3nc2/C=C(\O)c2ccc(OC)cc2)cc1 | > 100 µM | 25.4 µM | 69.2 | 52.2 µM | > 100 µM | 30.7 µM | 42.5 µM | 44.7 µM | 52.3 µM | 20 µM | > 100 µM | 32.6 | 86.1 | – | – | – | – | – | – |
| O=C(N/N=C/c1cc(Cl)cc(Cl)c1[O-])c1ccccc1O.O=C(N/N=C/c1cc(Cl)cc(Cl)c1[O-])c1ccccc1O.[Zn+2] | – | 6.82 µM | 6.88 | 8.56 µM | 18 µM | 11.2 µM | – | 1.84 µM | 14.5 µM | – | 4.98 µM | – | – | 0.337 | 0.363 | 1.37 | 0.0115 µM | 0.56 | – |
| C[C@]12CC/C(=N\O)C=C1CC[C@@H]1[C@@H]2CC[C@]2(C)C(=N/O)/C(=C/c3ccc([N+](=O)[O-])cc3)C[C@@H]12 | 45.4 µM | 12.5 µM | 16 | 71 µM | 9.55 µM | 75.2 µM | 30.7 µM | 14.6 µM | 14.2 µM | > 100 µM | 22.1 µM | > 100 | 3.69 | – | – | – | – | – | – |
| CCOC(=O)c1c(Cl)nc2ccccc2c1N=[N+]=[N-] | > 100 µM | 46.9 µM | 34.1 | > 100 µM | > 100 µM | > 100 µM | 30.7 µM | – | 43 µM | > 100 µM | 59.5 µM | 63.6 | 45.7 | – | – | – | – | – | – |
| CCC(=O)c1ccc2[nH]c3c(C)c4c(=O)cc(C)[nH]c4c(C)c3c2c1 | > 100 µM | > 100 µM | > 100 | > 100 µM | > 100 µM | > 100 µM | – | – | > 100 µM | > 100 µM | 82.3 µM | > 100 | > 100 | – | – | – | – | – | – |
| Cc1oc2c(Cl)cc(O)c(Cl)c2c2cccc1-2 | > 100 µM | 75.4 µM | > 100 | 53.1 µM | – | 44.1 µM | 80.7 µM | > 100 µM | 36.4 µM | 66.5 µM | 52.1 µM | > 100 | 16.5 | – | – | – | – | – | – |
| COc1cc(OC)c(/C=C\c2cc(/C=C/c3c(OC)cc(OC)cc3OC)c3ccccc3[n+]2C)c(OC)c1 | 14 µM | 38.3 µM | 12.7 | 4.52 µM | 5.48 µM | 9.25 µM | 9.8 µM | 16.5 µM | > 28.3 µM | 16.3 µM | 8.08 µM | 8.92 | 7.11 | – | – | – | – | – | – |
| CC(=O)NC(c1nc2cc(C)c(C)cc2[nH]1)c1nc2cc(C)c(C)cc2[nH]1 | 35.4 µM | 58.9 µM | > 100 | 83.7 µM | 26.6 µM | > 100 µM | 77.4 µM | > 100 µM | 53.7 µM | – | 43.3 µM | 32.8 | > 100 | – | – | – | – | – | – |
| Cc1ccc(-c2cc(C(F)(F)F)nn2-c2ccc(S(N)(=O)=O)cc2)cc1 | 43.4 µM | > 54.6 µM | > 60 | 46.6 µM | 53.2 µM | 37.7 µM | 42.1 µM | > 53.6 µM | > 58.2 µM | > 100 µM | 29.8 µM | 37.4 | > 61.8 | – | 12 | – | – | – | – |
| C1=C(c2ccccc2)Nc2nnnn2C1c1ccccc1 (stereo not given) | > 100 µM | > 100 µM | 79.8 | – | 60.3 µM | > 100 µM | > 100 µM | > 100 µM | 22.3 µM | > 100 µM | – | > 100 | > 100 | – | – | – | – | – | – |
| S=C1CC(c2ccccc2)Sc2ccccc2N1 (stereo not given) | – | > 100 µM | > 100 | > 100 µM | > 100 µM | > 100 µM | > 100 µM | > 100 µM | > 100 µM | 60.1 µM | – | > 100 | > 100 | – | – | – | – | – | – |
| CC1CCC2(C(=O)O)CCC3(C)C(=CCC4C5(C)CCC(O)C(C)(C)C5CCC43C)C2C1C (stereo not given) | 23.3 µM and 45.3 µM | 26.9 µM and 33.2 µM | 4.28 | 25.6 µM and 28.9 µM | 16.7 µM and 37.2 µM | 24.4 µM and 34.3 µM | 18.9 µM and 36.1 µM | 18.8 µM and 44 µM | 17.9 µM and > 100 µM | 21.8 µM and 39.1 µM | 21.1 µM and 42.6 µM | 24.8 | 29.3 | – | – | – | 3.66 µM and 12.1 µM | – | 7.07 µM and 22.6 µM |
| COc1cccc(/C=N/[N-]C(N)=O)c1[O-].[Ni+2].[OH3+].c1ccc(-c2ccccn2)nc1 | – | > 100 µM | > 100 | > 100 µM | > 100 µM | > 100 µM | > 100 µM | > 100 µM | > 100 µM | > 100 µM | 98.1 µM | > 100 | – | – | – | – | – | – | – |
| CC1CC[C@@]2(OC1)OC1CC3C4CCC5C[C@@H](OC6OC(CO)C(OC7OC(CO)C(O)C(OC8OC(CO)C(O)C(OC9OC(CO)C(O)C(O)C9O)C8O)C7OC7OC(CO)C(O)C(O)C7O)C(O)C6O)[C@H](O)C[C@]5(C)C4CC[C@]3(C)C1[C@@H]2C (stereo not given in full) | > 80.5 µM | – | > 80.5 | > 80.5 µM | – | > 80.5 µM | > 80.5 µM | > 80.5 µM | > 80.5 µM | > 80.5 µM | > 80.5 µM | > 80.5 | > 80.5 | – | – | – | – | – | – |

Reference: PubChem BioAssay (NCI)
